Drawing on patent US10266513B2 (Pfizer Inc., priority 2012, dated 2019), this text covers IC50 for 25 molecules.

Read-outs that look alike come from different tables or passages of the source.

What is called IC50 is the point on the concentration scale where inhibition reaches its midpoint.

The target in one assay is human EGFR kinase domain (Homo sapiens (Human), UniProt P00533). Nature of the assay: Human EGFR LanthaScreen Selectivity Assay (TR-FRET). The format is biochemical. The following applies: 20 μM ATP. A general note: In TR-FRET formats the signal depends on donor and acceptor labels being close together.
The test system of a further assay is human whole blood. Nature of the assay: Human Whole Blood Histamine Assay (anti-IgE induced histamine release). The note with it: heparinized human whole blood, anti-human-IgE 2 μg/ml, histamine release by ELISA, read-out: HWB IC50. The format is cell-based. As to the method: Human Whole Blood Histamine Assay
Heparinized human whole blood (200 μl) was plated in 96-well V-bottom assay plates (VWR). Compounds diluted in 100% DMSO (1 μl) were added and incubated at 37° C. for 120 minutes. Anti-human-IgE antibody (KPL) was added to a final concentration of 2 μg/ml and assay plates incubated for 30 minutes at 37° C. Plates were spun at 2000 rpm for 8 minutes and the analyzed for histamine release by ELISA kits (Beckman Coulter).
Inhibition curves and IC50 values are determined using Excel-fit.
In general terms: In an ELISA, binding on a coated surface is turned into a signal by an enzyme label.

The target in assay [1] is human full-length BTK Kinase (Homo sapiens (Human), UniProt Q06187). Put plainly: Human BTK LanthaScreen Assay (TR-FRET). The format is biochemical. The following applies: 50 μM ATP, FAM-Srctide peptide substrate, read-out: BTK Inhibition IC50. The source says: Human BTK LanthaScreen Assay
A further assay concerns Human B cells. Put plainly: Human Primary B Cell Proliferation Assay (3H-thymidine incorporation, anti-human IgM stimulated). The following applies: B-cell, purified human B cells, 50 μg/mL anti-human IgM F(ab')2, 72 hours. Format: cell-based. As to the method: Human Primary B Cell Proliferation Assay
Human B cells were purified from buffy coats using the human B cell RosetteSep kit per manufacturer's instructions. Purified cells were resuspended in RPMI-10% HIFCS, 2 mM L-glutamine, 100 U/mL penicillin, 100 μg/ml streptomycin, incubated with compounds for 1 hour at 37° C. and then stimulated with 50 μg/mL anti-human IgM F(ab′)2 for 72 hours. ^3H-thymidine was included in the culture media for the final 8-16 hours. Cells were harvested and ^3H-thymidine incorporation was measured.
Human B cell Proliferation Assay
For orientation: Dividing cells build labelled thymidine or BrdU into new DNA.

Chain of human EGFR kinase domain (P00533 712-979): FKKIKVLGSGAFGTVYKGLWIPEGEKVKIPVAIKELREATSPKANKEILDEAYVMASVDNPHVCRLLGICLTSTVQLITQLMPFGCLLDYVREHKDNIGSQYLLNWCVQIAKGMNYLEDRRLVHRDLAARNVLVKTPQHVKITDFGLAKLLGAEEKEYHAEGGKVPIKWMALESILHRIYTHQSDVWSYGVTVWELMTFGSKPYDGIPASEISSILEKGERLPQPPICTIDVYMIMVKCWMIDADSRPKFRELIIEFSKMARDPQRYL
Chain of human full-length BTK Kinase (Q06187 whole entry): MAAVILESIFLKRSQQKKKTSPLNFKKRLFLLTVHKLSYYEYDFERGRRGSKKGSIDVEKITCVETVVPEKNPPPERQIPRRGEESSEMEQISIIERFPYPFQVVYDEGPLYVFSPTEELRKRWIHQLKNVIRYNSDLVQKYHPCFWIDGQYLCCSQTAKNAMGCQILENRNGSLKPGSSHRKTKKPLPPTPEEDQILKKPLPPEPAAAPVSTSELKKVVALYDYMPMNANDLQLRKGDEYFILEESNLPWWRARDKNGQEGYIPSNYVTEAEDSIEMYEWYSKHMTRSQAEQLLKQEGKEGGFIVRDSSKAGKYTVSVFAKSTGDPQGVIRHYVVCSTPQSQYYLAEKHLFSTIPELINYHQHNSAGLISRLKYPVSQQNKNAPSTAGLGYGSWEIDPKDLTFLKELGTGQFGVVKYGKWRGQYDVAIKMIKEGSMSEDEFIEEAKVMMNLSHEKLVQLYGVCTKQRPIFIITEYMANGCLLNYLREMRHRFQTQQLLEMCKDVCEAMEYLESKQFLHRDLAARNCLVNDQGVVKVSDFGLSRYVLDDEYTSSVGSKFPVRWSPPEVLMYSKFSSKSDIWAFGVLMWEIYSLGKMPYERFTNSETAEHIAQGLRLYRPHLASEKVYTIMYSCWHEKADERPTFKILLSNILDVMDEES
Experimental for human EGFR kinase domain: The kinase reaction mixtures were incubated at room temperature for 60 minutes before stopping the kinase activity by the addition of 15 mM EDTA. The extent of peptide phosphorylation by EGFR was detected using a Terbium-conjugated anti-phospho-Tyrosine antibody (Tb-PT66 antibody, invitrogen # PV3557).

In the case of `N#CN1CCCC(n2nc(-c3ccc(Oc4ccccc4)cc3)c(C(N)=O)c2N)C1` (single isomer, unassigned) [Example 2], the IC50 against human EGFR kinase domain was 1710 nM; in the assay with human whole blood, 33.3 nM; in assay [1], 0.37 nM; with Human B cells it was 0.5 nM.

As to `N#CN1CCCC(n2nc(-c3ccc(Oc4ccc(Cl)cc4)cc3)c(C(N)=O)c2N)C1` (single isomer, unassigned) [Example 15], the IC50 stood at 3890 nM on human EGFR kinase domain, 20.6 nM in the assay with human whole blood, 0.64 nM in assay [1] and 1.7 nM with Human B cells.

On to `C=CC(=O)N1CCC[C@H](n2nc(-c3ccc(Oc4ccccc4)cc3)c(C(N)=O)c2N)C1` [Example 126, 1-[(3S)-1-acryloylpiperidin-3-yl]-5-amino-3-(4-phenoxyphenyl)-1H-pyrazole-4-carboxamide], for which the figures for the IC50 against human EGFR kinase domain, in the assay with human whole blood (Homo sapiens) and with Human B cells (Homo sapiens) were 802 nM, 201 nM and 20.9 nM, respectively.

`COC/C=C/C(=O)N1CCC[C@@H](n2nc(-c3ccc(Oc4ccc(F)cc4F)cc3)c(C(N)=O)c2N)C1` [Example 138, 5-amino-3-[4-(2,4-difluorophenoxy)phenyl]-1-{(3R)-1-[(2E)-4-methoxybut-2-enoyl]piperidin-3-yl}-1H-pyrazole-4-carboxamide]: in assay [1], the IC50 came to 21.8 nM.

Turning to `C=C(C)C(=O)N1CCC[C@@H](n2nc(-c3ccc(Oc4ccc(F)cc4F)cc3)c(C(N)=O)c2N)C1` [Example 139, 5-amino-3-[4-(2,4-difluorophenoxy)phenyl]-1-[(3R)-1-(2-methylacryloyl)piperidin-3-yl]-1H-pyrazole-4-carboxamide], the IC50 in assay [1] worked out at 247 nM.

For the molecule `NC(=O)c1c(-c2ccc(Oc3ccc(F)cc3F)cc2)nn([C@@H]2CCCN(C(=O)/C=C/CCO)C2)c1N` [Example 141, 5-amino-3-[4-(2,4-difluorophenoxy)phenyl]-1-{(3R)-1-[(2E)-5-hydroxypent-2-enoyl]piperidin-3-yl}-1H-pyrazole-4-carboxamide], the IC50 in assay [1] stood at 58 nM.

As for `C/C=C/C(=O)N1CCC[C@@H](n2nc(-c3ccc(Oc4ccc(F)cc4F)cc3)c(C(N)=O)c2N)C1` [Example 142, 5-amino-1-{(3R)-1-[(2E)-but-2-enoyl]piperidin-3-yl}-3-[4-(2,4-difluorophenoxy)phenyl]-1H-pyrazole-4-carboxamide], the IC50 in assay [1] came out at 61 nM.

For `CC/C=C/C(=O)N1CCC[C@@H](n2nc(-c3ccc(Oc4ccc(F)cc4F)cc3)c(C(N)=O)c2N)C1` [Example 143, 5-amino-3-[4-(2,4-difluorophenoxy)phenyl]-1-{(3R)-1-[(2E)-pent-2-enoyl]piperidin-3-yl}-1H-pyrazole-4-carboxamide], in assay [1], the IC50 worked out at 125 nM.

As to `NC(=O)c1c(-c2ccc(Oc3ccc(F)cc3F)cc2)nn([C@@H]2CCCN(C(=O)/C=C/C(F)F)C2)c1N` [Example 144, 5-amino-1-{(3R)-1-[(2E)-4,4-difluorobut-2-enoyl]piperidin-3-yl}-3-[4-(2,4-difluorophenoxy)phenyl]-1H-pyrazole-4-carboxamide], the IC50 came out at 0.41 nM in assay [1] and 0.84 nM in the assay with Human B cells.

For the molecule `NC(=O)c1c(-c2ccc(Oc3ccc(F)cc3F)cc2)nn([C@@H]2CCCN(C(=O)/C(F)=C/CO)C2)c1N` [Example 146, 5-amino-3-[4-(2,4-difluorophenoxy)phenyl]-1-{(3R)-1-[(2Z)-2-fluoro-4-hydroxybut-2-enoyl]piperidin-3-yl}-1H-pyrazole-4-carboxamide], the IC50 in assay [1] is 48 nM.

For the molecule `CC(C)(O)/C=C/C(=O)N1CCC[C@@H](n2nc(-c3ccc(Oc4ccc(F)cc4F)cc3)c(C(N)=O)c2N)C1` [Example 147, 5-amino-3-[4-(2,4-difluorophenoxy)phenyl]-1-{(3R)-1-[(2E)-4-hydroxy-4-methylpent-2-enoyl]piperidin-3-yl}-1H-pyrazole-4-carboxamide], the IC50 in assay [1] came to 241 nM.

`C[C@H](O)/C=C/C(=O)N1CCC[C@@H](n2nc(-c3ccc(Oc4ccc(F)cc4F)cc3)c(C(N)=O)c2N)C1` [Example 148, 5-amino-3-[4-(2,4-difluorophenoxy)phenyl]-1-{(3R)-1-[(2E,4S)-4-hydroxypent-2-enoyl]piperidin-3-yl}-1H-pyrazole-4-carboxamide]: the IC50 in assay [1] turned out to be 39 nM.

Regarding `C[C@@H](O)/C=C/C(=O)N1CCC[C@@H](n2nc(-c3ccc(Oc4ccc(F)cc4F)cc3)c(C(N)=O)c2N)C1` [Example 149, 5-amino-3-(4-(2,4-difluorophenoxy)phenyl)-1-((R)-1-((R,E)-4-hydroxypent-2-enoyl)piperidin-3-yl)-1H-pyrazole-4-carboxamide], the IC50 in assay [1] was found to be 52 nM.

As for `C=C(F)C(=O)N1CCC[C@@H](n2nc(-c3ccc(Oc4ccc(F)cc4F)cc3)c(C(N)=O)c2N)C1` [Example 150, 5-amino-3-[4-(2,4-difluorophenoxy)phenyl]-1-[(3R)-1-(2-fluoroacryloyl)piperidin-3-yl]-1H-pyrazole-4-carboxamide], the IC50 in assay [1] was found to be 5.3 nM.

For `N#C/C=C/C(=O)N1CCC[C@@H](n2nc(-c3ccc(Oc4ccc(F)cc4F)cc3)c(C(N)=O)c2N)C1` [Example 152, 5-amino-1-{(3R)-1-[(2E)-3-cyanoprop-2-enoyl]piperidin-3-yl}-3-[4-(2,4-difluorophenoxy)phenyl]-1H-pyrazole-4-carboxamide], the IC50 in assay [1] was found to be 1.5 nM.

For `C=CC(=O)N1CCC[C@@H](n2nc(-c3ccc(Oc4ncc(Cl)cc4F)cc3)c(C(N)=O)c2N)C1` [Example 153, 1-[(3R)-1-acryloylpiperidin-3-yl]-5-amino-3-{4-[(5-chloro-3-fluoropyridin-2-yl)oxy]phenyl}-1H-pyrazole-4-carboxamide], the values for the IC50 (in assay [1]; in the assay with Human B cells) were 0.48 nM and 0.56 nM, respectively.

Take `NC(=O)c1c(-c2ccc(Oc3ncc(Cl)cc3F)cc2)nn([C@@H]2CCCN(C(=O)/C=C/CO)C2)c1N` [Example 154, 5-amino-3-{4-[(5-chloro-3-fluoropyridin-2-yl)oxy]phenyl}-1-{(3R)-1-[(2E)-4-hydroxybut-2-enoyl]piperidin-3-yl}-1H-pyrazole-4-carboxamide]: the IC50 in assay [1] was 49 nM.

Take `NC(=O)c1c(-c2ccc(Oc3ncc(Cl)cc3F)cc2)nn([C@@H]2CCCN(C(=O)/C=C/C(F)F)C2)c1N` [Example 155, 5-amino-3-{4-[(5-chloro-3-fluoropyridin-2-yl)oxy]phenyl}-1-{(3R)-1-[(2E)-4,4-difluorobut-2-enoyl]piperidin-3-yl}-1H-pyrazole-4-carboxamide]: the IC50 against human EGFR kinase domain was determined as 106 nM; in assay [1] it was 0.7 nM; with Human B cells, 2 nM.

In the case of `NC(=O)c1c(-c2ccc(Oc3ncc(Cl)cc3F)cc2)nn([C@@H]2CCCN(C(=O)/C=C/CF)C2)c1N` [Example 156, 5-amino-3-{4-[(5-chloro-3-fluoropyridin-2-yl)oxy]phenyl}-1-{(3R)-1-[(2E)-4-fluorobut-2-enoyl]piperidin-3-yl}-1H-pyrazole-4-carboxamide], the IC50 against human EGFR kinase domain stood at 381 nM; in assay [1], 1.4 nM; in the assay on Human B cells it was 2.5 nM.

Regarding `NC(=O)c1c(-c2ccc(Oc3ccc(Cl)cn3)cc2)nn([C@@H]2CCCN(C(=O)/C=C/C(F)F)C2)c1N` [Example 159, 5-amino-3-{4-[(5-chloropyridin-2-yl)oxy]phenyl}-1-{(3R)-1-[(2E)-4,4-difluorobut-2-enoyl]piperidin-3-yl}-1H-pyrazole-4-carboxamide], the IC50 against human EGFR kinase domain was found to be 311 nM; in assay [1], 1.3 nM; in the assay with Human B cells it was 2.8 nM.

As to `NC(=O)c1c(-c2ccc(Oc3ccc(Cl)cn3)cc2)nn(C2CCCN(C(=O)/C=C/CF)C2)c1N` (stereo not shown) [Example 160], the IC50 was 890 nM against human EGFR kinase domain, 5.5 nM in assay [1] and 2.9 nM in the assay on Human B cells.

For `NC(=O)c1c(-c2ccc(Oc3cccc(C(F)(F)F)n3)cc2)nn([C@@H]2CCCN(C(=O)/C=C/C(F)F)C2)c1N` [Example 163, 5-amino-1-{(3R)-1-[(2E)-4,4-difluorobut-2-enoyl]piperidin-3-yl}-3-(4-{[6-(trifluoromethyl)pyridin-2-yl]oxy}phenyl)-1H-pyrazole-4-carboxamide], the results for the IC50 (in assay [1]; with Human B cells) were 1.3 nM and 0.92 nM, respectively.

With `NC(=O)c1c(-c2ccc(Oc3cccc(C(F)(F)F)n3)cc2)nn([C@@H]2CCCN(C(=O)/C=C/CF)C2)c1N` [Example 164, 5-amino-1-{(3R)-1-[(2E)-4-fluorobut-2-enoyl]piperidin-3-yl}-3-(4-{[6-(trifluoromethyl)pyridin-2-yl]oxy}phenyl)-1H-pyrazole-4-carboxamide], the values for the IC50 (at human EGFR kinase domain; in assay [1]; in the assay on Human B cells) were 3360 nM, 3.2 nM and 11.4 nM, respectively.

As to `C=C(F)C(=O)N1CCC[C@@H](n2nc(-c3ccc(Oc4cccc(C(F)(F)F)n4)cc3)c(C(N)=O)c2N)C1` [Example 165], the IC50 in assay [1] worked out at 4.4 nM.

As for `N#C/C=C/C(=O)N1CCC[C@@H](n2nc(-c3ccc(Oc4cccc(C(F)(F)F)n4)cc3)c(C(N)=O)c2N)C1` [Example 166, 5-amino-1-{(3R)-1-[(2E)-3-cyanoprop-2-enoyl]piperidin-3-yl}-3-(4-{[6-(trifluoromethyl)pyridin-2-yl]oxy}phenyl)-1H-pyrazole-4-carboxamide], in assay [1], the IC50 turned out to be 2.2 nM.
